According to article PMC5439695 (PLoS ONE, 2017):
Several values for one entry are separate records, joined by “and”; a condition that tells them apart may be missing. Equal values may be shown once. Read-outs that look alike come from different tables or passages of the source.

What was measured:
[1] = tested on: HEK293 and HepG2 cell lines
HepG2 cells [2] = details: for IC50: HepG2, glo, n=136
HepG2 cells [3] = test: CellTox Green Cytotoxicity Assay (flor) in HepG2, HepG2[flor]; type: cell-based, human; details: HepG2, flor, n=136, read-out: EC50
HEK293 cells [4] = details: HEK293, flor, mean and SD, n=136
HEK293 cells [5] = details: HEK293, glo, mean and SD, n=136
[6] = POD potency, max over real-time cytotoxicity assays
[7] = POD potency, median over real-time cytotoxicity assays

CCCCCCCCCCCCn1cc[n+](C)c1.O=S(=O)([O-])C(F)(F)F
Cyto(realtime)_max [1, 6]: 6.68 log10(M)*-1 | Cyto(realtime)_median [1, 7]: 4.57 log10(M)*-1

CC=O [Acetaldehyde]
Cyto(realtime)_max [1, 6]: 6.67 log10(M)*-1 | Cyto(realtime)_median [1, 7]: 4.54 log10(M)*-1

C=C(c1ccc(C(=O)O)cc1)c1cc2c(cc1C)C(C)(C)CCC2(C)C [Bexarotene]
Cyto(realtime)_max [1]: 4.68 log10(M)*-1 | Cyto(realtime)_median [1]: 4.23 log10(M)*-1

CO[C@@]12[C@H](COC(N)=O)C3=C(C(=O)C(C)=C(N)C3=O)N1C[C@@H]1N[C@@H]12 [mitomycin C, reference compound]
activity in the assay (cytotoxic effect) (HepG2 cells [2]): active

CC/C(=C(\c1ccc(O)cc1)c1ccc(OCCN(C)C)cc1)c1ccccc1 [(Z)-4-Hydroxytamoxifen]
Cyto(realtime)_max [1, 6]: 4.89 log10(M)*-1 | Cyto(realtime)_median [1, 7]: 4.45 log10(M)*-1

Triethyltin bromide
Cyto(realtime)_max [1]: 6.72 log10(M)*-1 | Cyto(realtime)_median [1]: 5.42 log10(M)*-1

CCCCCCCCCCCCCC[P+](CCCC)(CCCC)CCCC.CCCCCCCCCCCCc1ccc(S(=O)(=O)[O-])cc1
Cyto(realtime)_max [1, 6]: 6.97 log10(M)*-1 | Cyto(realtime)_median [1, 7]: 5.03 log10(M)*-1

CCCCCCCCCCCCCCCC[N+](C)(C)C.[Cl-]
Cyto(realtime)_max [1, 6]: 5.58 log10(M)*-1 | Cyto(realtime)_median [1, 7]: 4.79 log10(M)*-1

1-Ethyl-3-methylimidazolium diethylphosphate
Cyto(realtime)_max [1]: 6.32 log10(M)*-1 | Cyto(realtime)_median [1]: 4.65 log10(M)*-1

CC(C)(C)CC(C)(C)c1ccc(O)cc1 [4-(1,1,3,3-tetramethylbutyl)phenol, reference compound]
cytotoxicity kinetics activity profile in the four real-time cytotoxicity assays ([1]; HEK293[glo], HEK293[flor], HepG2[glo], HepG2[flor]): quickly reach the maximum cytotoxic effect in at least three assays

CCCCCCCCCCCCCC[n+]1ccn(C)c1.[Cl-]
Cyto(realtime)_max [1, 6]: 6.67 log10(M)*-1 | Cyto(realtime)_median [1, 7]: 4.69 log10(M)*-1

N=C1NC(=N)c2cc3ccccc3cc21 [1,3-Diiminobenz(f)isoindoline]
Cyto(realtime)_max [1, 6]: 4.75 log10(M)*-1 | Cyto(realtime)_median [1, 7]: 4.40 log10(M)*-1

C=CC1(C)OC(=O)N(c2cc(Cl)cc(Cl)c2)C1=O (stereo not drawn) [vinclozolin, reference compound]
cytotoxicity kinetics activity profile in the four real-time cytotoxicity assays [1]: no activity in all four real-time cytotoxicity assays

CCCCCCCC[N+](CCCCCCCC)(CCCCCCCC)CCCCCCCC [tetra-N-octylammonium bromide, reference compound]
EC50 (HepG2 cells [3]; 8 hrs): 7.59 ± 1.48 µM | EC50 (HepG2 cells [3]; 16 hrs): 6.18 ± 1.27 µM | EC50 (HepG2 cells [3]; 24 hrs): 5.87 ± 1.1 µM | EC50 (HepG2 cells [3]; 32 hrs): 6.43 ± 1 µM | EC50 (HepG2 cells [3]; 40 hrs): 6.4 ± 0.96 µM | EC50 (HEK293 cells [4]; 8 hrs): 9.88 ± 2.1 µM | EC50 (HEK293 cells [4]; 16 hrs): 8.01 ± 1.52 µM | EC50 (HEK293 cells [4]; 24 hrs): 6.06 ± 1.11 µM | EC50 (HEK293 cells [4]; 32 hrs): 6.8 µM and 6.73 µM | EC50 (HEK293 cells [4]; 40 hrs): 7.69 ± 1.76 µM | IC50 (HEK293 cells [5]; 8 hrs): 5.91 ± 1.26 µM | IC50 (HEK293 cells [5]; 16 hrs): 2.53 ± 0.74 µM | IC50 (HEK293 cells [5]; 24 hrs): 1.34 ± 0.52 µM | IC50 (HEK293 cells [5]; 32 hrs): 0.87 ± 0.44 µM | IC50 (HEK293 cells [5]; 40 hrs): 0.79 ± 0.32 µM | IC50 (HepG2 cells [2]; 8 hrs): 7.9 ± 1.62 µM | IC50 (HepG2 cells [2]; 16 hrs): 7.53 ± 1.44 µM | IC50 (HepG2 cells [2]; 24 hrs): 7.79 ± 1.54 µM | IC50 (HepG2 cells [2]; 32 hrs): 8.05 ± 1.68 µM | IC50 (HepG2 cells [2]; 40 hrs): 8.18 ± 1.91 µM

CCCCCCCCCCCCCC[N+](C)(C)C.[Cl-]
Cyto(realtime)_max [1, 6]: 5.94 log10(M)*-1 | Cyto(realtime)_median [1, 7]: 4.88 log10(M)*-1
